We go through two compounds from patent US8252308B2, “Feminine anti-itch gel” (C.B. Fleet Company Inc., priority 2005, dated 2012).

A short description of the data set: pH and solubility behaviour of the anesthetic in water. It counts as physicochemical. The text has this:
In a preferred aspect, the pH modifier and the quantity of the pH modifier are selected to provide a pH to the composition of from 4 to 7, from 4.5 to 6.5, or more preferably from 5 to 5.3 when pramoxine serves as an anesthetic. In one aspect, the preferred pH for the gel is a pH value where the anesthetic is substantially present in its neutral state. For example, the hydrochloride salt of pramoxine has an acidic pH in water of about 4. However, at about pH 5 the pramoxine salt deprotonates to a neutral form that may provide increased transfer of the anesthetic into the vulvar tissues. Thus, a sufficient quantity of a base may be added to the gel as a pH modifier to provide the anesthetic in a substantially neutral form. However, at an upper pH value, such as about 5.2 for pramoxine, the anesthetic may precipitate out of the water phase, thus reducing the clarity of the gel. Thus, in a more preferred aspect, the pH modifier is chosen to provide a pH to the gel at which the majority of the anesthetic is present in its neutral state while remaining substantially solubilized.

Where a name gives a salt, the structure may show the parent alone.

For `CCOC(=O)c1ccc(N)cc1` [benzocaine], the water solubility result is recorded as “water insoluble”.
With `CCCCOc1ccc(OCCCN2CCOCC2)cc1` [hydrochloride salt of pramoxine, pramoxine hydrochloride], the “pH at which the salt deprotonates to a neutral form” value was around 5 and the “upper pH value at which the anesthetic may precipitate out of the water phase” value is given as “about 5.2”. For the setting “hydrochloride salt in water”, the pH in water result is listed as “about 4”.
